Measurements reported in a compilation of properties of binary mixtures (doi:10.1016/j.electacta.2009.09.024).

Experiment: xn = mol fraction of the nth substance listed
Conditions: 100 kPa, x2 = 0.25

O=S(=O)([N-]S(=O)(=O)C(F)(F)F)C(F)(F)F.[Rb+] + O=S(=O)([N-]S(=O)(=O)C(F)(F)F)C(F)(F)F.[Li+]
Conditions	electrical conductivity [S/m]	viscosity [mPa·s]
442.2 K	0.822	–
442.5 K	–	63.2
452.2 K	1.05	–
462.7 K	1.28	–
473.7 K	1.52	–
473.9 K	–	28.1
482.9 K	1.86	–
492.3 K	2.15	–
492.6 K	–	17.9
502.4 K	2.48	–
502.5 K	–	14.3
512.8 K	–	11.8
523.1 K	3.2	–
543.3 K	4.03	–
543.5 K	–	7.21
551.9 K	4.33	–
552.5 K	–	6.61
561.2 K	4.79	–
561.8 K	–	5.8
571.1 K	5.08	–
